Results on four compounds are retold here after the NIST ThermoML archive (doi:10.1016/j.fluid.2013.07.061).

± gives the expanded uncertainty stated by the source.

Assay in one data set: not given
The note with it: Crystal 1; DTA.
Regarding `CCC[N+]1(C)CCCC1.F[P-](F)(F)(F)(F)F` [1-methyl-1-propylpyrrolidinium hexafluorophosphate], the Normal melting temperature came out at 110.5 ± 1.4 °C.
For the compound `CCCC[P+](CCCC)(CCCC)CCCC.F[P-](F)(F)(F)(F)F` [tetrabutylphosphonium hexafluorophosphate], the Normal melting temperature is 225.5 ± 0.4 °C.
In the case of `CCCC[N+](CCCC)(CCCC)CCCC.F[P-](F)(F)(F)(F)F` [tetrabutylammonium hexafluorophosphate], the Normal melting temperature came to 251.1 ± 0.9 °C.
The same measure, in the same setting: then `CCC[N+]1(C)CCCCC1.F[P-](F)(F)(F)(F)F` [1-methyl-1-propylpiperidinium hexafluorophosphate], with 95.1 ± 0.4 °C.

The same data set, now with this note: Crystal 2; DTA.
Regarding `CCC[N+]1(C)CCCC1.F[P-](F)(F)(F)(F)F` [1-methyl-1-propylpyrrolidinium hexafluorophosphate], the Triple point temperature is recorded as 360.88 ± 1.7 K.
On the same count and under the same terms, then `CCCC[N+](CCCC)(CCCC)CCCC.F[P-](F)(F)(F)(F)F` [tetrabutylammonium hexafluorophosphate], with 360.7 ± 0.7 K; and `CCC[N+]1(C)CCCCC1.F[P-](F)(F)(F)(F)F` [1-methyl-1-propylpiperidinium hexafluorophosphate], with 350.96 ± 0.39 K.

The same data set, now with this note: Crystal 3; DTA.
With `CCC[N+]1(C)CCCC1.F[P-](F)(F)(F)(F)F` [1-methyl-1-propylpyrrolidinium hexafluorophosphate], the Triple point temperature was 348.58 ± 1.3 K.
On the same count and under the same terms, then `CCCC[P+](CCCC)(CCCC)CCCC.F[P-](F)(F)(F)(F)F` [tetrabutylphosphonium hexafluorophosphate], with 265.37 ± 0.39 K; and `CCCC[N+](CCCC)(CCCC)CCCC.F[P-](F)(F)(F)(F)F` [tetrabutylammonium hexafluorophosphate], with 303.95 ± 0.39 K.
The same measure, in the same setting: then `CCC[N+]1(C)CCCCC1.F[P-](F)(F)(F)(F)F` [1-methyl-1-propylpiperidinium hexafluorophosphate], with 310.6 ± 0.73 K.

Another data set in a line: Molar enthalpy of transition or fusion. The note with it: Crystal 1; DSC.
Regarding `CCC[N+]1(C)CCCC1.F[P-](F)(F)(F)(F)F` [1-methyl-1-propylpyrrolidinium hexafluorophosphate], the “Molar enthalpy of transition or fusion” value was found to be 0.875 ± 0.0765 kcal/mol.
`CCCC[P+](CCCC)(CCCC)CCCC.F[P-](F)(F)(F)(F)F` [tetrabutylphosphonium hexafluorophosphate]: the “Molar enthalpy of transition or fusion” value was found to be 3.51 ± 0.0884 kcal/mol.
Regarding `CCCC[N+](CCCC)(CCCC)CCCC.F[P-](F)(F)(F)(F)F` [tetrabutylammonium hexafluorophosphate], the “Molar enthalpy of transition or fusion” value turned out to be 3.92 ± 0.153 kcal/mol.
Consider `CCC[N+]1(C)CCCCC1.F[P-](F)(F)(F)(F)F` [1-methyl-1-propylpiperidinium hexafluorophosphate], for which the “Molar enthalpy of transition or fusion” value stood at 1.23 ± 0.0454 kcal/mol.

The same data set, now with this note: Crystal 2; DSC.
`CCC[N+]1(C)CCCC1.F[P-](F)(F)(F)(F)F` [1-methyl-1-propylpyrrolidinium hexafluorophosphate]: the “Molar enthalpy of transition or fusion” value is 0.55 ± 0.0478 kcal/mol.
Take `CCCC[N+](CCCC)(CCCC)CCCC.F[P-](F)(F)(F)(F)F` [tetrabutylammonium hexafluorophosphate]: the “Molar enthalpy of transition or fusion” value worked out at 0.492 ± 0.55 kcal/mol.
Same read-out and setting: then `CCC[N+]1(C)CCCCC1.F[P-](F)(F)(F)(F)F` [1-methyl-1-propylpiperidinium hexafluorophosphate], with 0.664 ± 0.0335 kcal/mol.

The same data set, now with this note: Crystal 3; DSC.
With `CCC[N+]1(C)CCCC1.F[P-](F)(F)(F)(F)F` [1-methyl-1-propylpyrrolidinium hexafluorophosphate], the “Molar enthalpy of transition or fusion” value was determined as 0.66 ± 0.0502 kcal/mol.
The same measure, in the same setting: then `CCCC[P+](CCCC)(CCCC)CCCC.F[P-](F)(F)(F)(F)F` [tetrabutylphosphonium hexafluorophosphate], with 0.433 ± 0.0335 kcal/mol.
On the same count and under the same terms, then `CCCC[N+](CCCC)(CCCC)CCCC.F[P-](F)(F)(F)(F)F` [tetrabutylammonium hexafluorophosphate], with 0.502 ± 0.0526 kcal/mol; and `CCC[N+]1(C)CCCCC1.F[P-](F)(F)(F)(F)F` [1-methyl-1-propylpiperidinium hexafluorophosphate], with 1.89 ± 0.1 kcal/mol.
